We go through two molecules from ChEMBL document CHEMBL5053551, “Structure-Based Design of Dual Partial Peroxisome Proliferator-Activated Receptor γ Agonists/Soluble Epoxide Hydrolase Inhibitors” (J Med Chem, 2021).

The subject of data set [1] is HepG2. As to the kind of experiment: Cytotoxicity against human HepG2 cells assessed as reduction in ATP level upto 10 uM after 72 hrs by CellTiter-glo luminescence assay. The format is cell-based. The settings on record: hepg2, 72 h.
Data set [2] concerns the target T1, Bifunctional epoxide hydrolase 2 (Mus musculus, UniProt P34914).
T1 sequence (P34914 whole entry): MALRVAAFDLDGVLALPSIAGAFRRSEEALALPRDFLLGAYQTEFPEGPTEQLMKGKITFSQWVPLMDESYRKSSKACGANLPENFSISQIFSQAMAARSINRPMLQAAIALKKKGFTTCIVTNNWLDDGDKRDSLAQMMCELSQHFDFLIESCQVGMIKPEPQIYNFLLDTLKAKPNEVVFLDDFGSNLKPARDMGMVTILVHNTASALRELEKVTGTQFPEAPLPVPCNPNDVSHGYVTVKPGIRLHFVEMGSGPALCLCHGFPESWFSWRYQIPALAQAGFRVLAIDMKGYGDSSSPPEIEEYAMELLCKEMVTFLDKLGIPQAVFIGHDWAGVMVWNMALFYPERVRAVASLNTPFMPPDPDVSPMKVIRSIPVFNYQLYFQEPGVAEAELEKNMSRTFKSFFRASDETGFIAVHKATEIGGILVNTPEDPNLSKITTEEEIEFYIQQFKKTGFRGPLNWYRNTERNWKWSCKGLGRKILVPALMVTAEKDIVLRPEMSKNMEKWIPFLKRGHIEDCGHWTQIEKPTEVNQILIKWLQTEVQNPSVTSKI
As to the kind of experiment: Inhibition of N-terminal His-tagged mouse sEH (2 to 554 residues) expressed in Escherichia coli Rosetta2 (DE3) assessed as reduction in 6-methoxy-2-naphthaldehyde formation using PHOME as substrate preincubated for 30 to 45 mins followed by substrate addition and measured after 30 to 45 mins by fluorescence assay.

For data set [3], the target named is T2, Peroxisome proliferator-activated receptor gamma (Homo sapiens, UniProt P37231).
T2 sequence (P37231 whole entry): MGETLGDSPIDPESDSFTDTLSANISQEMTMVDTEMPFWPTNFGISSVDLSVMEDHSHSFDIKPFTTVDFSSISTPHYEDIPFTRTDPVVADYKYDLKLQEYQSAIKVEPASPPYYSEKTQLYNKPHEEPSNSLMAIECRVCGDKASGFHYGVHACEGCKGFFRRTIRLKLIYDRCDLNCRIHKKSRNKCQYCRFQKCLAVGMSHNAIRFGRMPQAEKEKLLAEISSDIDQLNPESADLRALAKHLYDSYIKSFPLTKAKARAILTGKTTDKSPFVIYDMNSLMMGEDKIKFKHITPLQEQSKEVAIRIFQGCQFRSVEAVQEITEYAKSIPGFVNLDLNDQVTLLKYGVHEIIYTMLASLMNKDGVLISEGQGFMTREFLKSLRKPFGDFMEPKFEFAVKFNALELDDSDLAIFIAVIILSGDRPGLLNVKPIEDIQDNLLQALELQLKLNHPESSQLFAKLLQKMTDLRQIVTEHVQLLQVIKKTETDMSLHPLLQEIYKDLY
Kind of data set: Partial agonist activity at GAL4-tagged human PPARgamma LBD expressed in HEK293T cells incubated for 12 to 14 hrs by dual-Glo luciferase assay. The format is cell-based.

For the next data set, the system named is 3T3-L1. Kind of data set: Induction of cell differentiation in mouse 3T3-L1 cells assessed as increase in differentiation cocktail-induced lipid accumulation at 0.3 to 3 uM incubated for 2 days by Oil-Red O staining based assay. The format is functional. The settings on record: dose 0.3-3 µM, time 2.0 day.
Data set [4] addresses T3, Peroxisome proliferator-activated receptor delta (Homo sapiens) (UniProt Q03181).
T3 sequence (whole entry): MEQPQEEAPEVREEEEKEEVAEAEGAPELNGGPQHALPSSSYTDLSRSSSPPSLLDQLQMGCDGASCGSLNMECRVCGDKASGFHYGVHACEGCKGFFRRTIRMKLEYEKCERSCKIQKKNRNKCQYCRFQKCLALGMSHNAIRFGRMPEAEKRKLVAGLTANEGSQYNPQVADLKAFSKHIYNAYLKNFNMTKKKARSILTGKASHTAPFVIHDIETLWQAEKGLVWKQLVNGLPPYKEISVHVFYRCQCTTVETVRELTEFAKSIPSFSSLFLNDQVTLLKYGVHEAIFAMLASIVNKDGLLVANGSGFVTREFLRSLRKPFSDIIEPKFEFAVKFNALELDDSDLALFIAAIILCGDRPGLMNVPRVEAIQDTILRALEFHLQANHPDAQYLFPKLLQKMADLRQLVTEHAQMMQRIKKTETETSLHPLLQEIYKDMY
Kind of data set: Partial agonist activity at GAL4-tagged human PPARdelta LBD expressed in HEK293T cells at 3 uM incubated for 12 to 14 hrs by dual-Glo luciferase assay. The settings on record: time 12-14 hrs. The format is cell-based.

Data set [5] addresses T2, Peroxisome proliferator-activated receptor gamma. Kind of data set: Partial agonist activity at sGSF-PPARgamma (unknown origin) assessed as CBP-1 recruitment by HT-FRET assay.
The test system of data set [6] is HepG2. As to the kind of experiment: Cytotoxicity against human HepG2 cells assessed as reduction in ATP level at above 25 to 50 uM after 72 hrs by CellTiter-glo luminescence assay. The settings on record: hepg2, 72 h, dose 25-50 µM. Format: cell-based.
The target of data set [7] is T4, Nuclear receptor subfamily 1 group I member 3 (Homo sapiens, UniProt Q14994).
T4 sequence (Q14994 whole entry): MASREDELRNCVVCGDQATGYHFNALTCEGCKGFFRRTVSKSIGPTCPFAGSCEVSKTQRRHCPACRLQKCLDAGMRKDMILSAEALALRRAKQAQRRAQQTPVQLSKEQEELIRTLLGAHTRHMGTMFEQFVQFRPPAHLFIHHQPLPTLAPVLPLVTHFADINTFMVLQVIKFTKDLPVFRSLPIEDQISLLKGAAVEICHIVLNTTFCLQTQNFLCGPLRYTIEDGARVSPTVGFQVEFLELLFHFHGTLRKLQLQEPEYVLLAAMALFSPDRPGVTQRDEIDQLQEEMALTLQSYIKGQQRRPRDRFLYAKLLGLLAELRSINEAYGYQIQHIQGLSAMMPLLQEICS
As to the kind of experiment: Partial agonist activity at GAL4-tagged human CAR LBD expressed in HEK293T cells at 3 uM incubated for 12 to 14 hrs by dual-Glo luciferase assay. Format: cell-based. The settings on record: time 12-14 hrs.

Data set [8] is described as follows: Stability of compound in human liver microsomes assessed as half life at 10 uM preincubated for 5 mins in presence of NADPH regenerating system followed by microsomal addition and measured upto 60 mins by HPLC analysis. Conditions: time 65 min. Format: ADME, Microsome.

Activity calls are given as the source filed them. The rule behind the calls is not given here.

As for `CS(=O)(=O)Nc1ccc(CNC(=O)c2ccc3c(ccn3Cc3cccc(F)c3)c2)c(C(F)(F)F)c1`, the Activity entry in the data set with HepG2 [1] is “Non-Toxic”; with HepG2 [6], “Toxic”; in data set [7] it was “Active”. The IC50 in data set [2] stood at 46 nM. For the same molecule, the results for the EC50 in data set [3] and in data set [5] were 190 nM and 330 nM, respectively. Moreover, the result in the data set on 3T3-L1 was Active. The outcome in data set [4] was inactive. The half-life at 10 µM in [8] was 1.68 h.

In the case of `O=C(NCc1ccc(NS(=O)(=O)C2CC2)cc1C(F)(F)F)c1ccc2c(ccn2Cc2cccc(F)c2)c1`, the Activity result in the data set on HepG2 [1] was “Non-Toxic”; in the data set with HepG2 [6], “Toxic”; in [7], “Active”. In addition, the IC50 in [2] turned out to be 202 nM. For the same molecule, the EC50 in data set [3] is 220 nM; in data set [5], 180 nM. Also, in the data set with 3T3-L1, the result was Active. In data set [4], the outcome was inactive. The half-life at 10 µM in data set [8] is 1.38 h.
